These results are taken from PubChem BioAssay AID2305 (GlaxoSmithKline (GSK), 2010).

The experiment has as its system P. falciparum 3D7 growth, pLDH absorbance. Description: P. falciparum 3D7 growth inhibition, dose response, strain 3D7 (AID 2305).

Consider `N#Cc1cccc(-c2cnc(N)c(-c3nc4ccc(S(N)(=O)=O)cc4[nH]3)c2)c1`, for which the IC50 – broadly, the midpoint of a concentration-inhibition curve – is 640 nM.

For `NC(N)=NCCN(Cc1ccccc1)c1ccccc1`, the IC50 came to 350 nM.

In turn, `Nc1ncc(-c2cccc(CCN3CCOCC3)c2)cc1-c1nc2ccc(Br)cc2[nH]1` had an IC50 of 280 nM.

Molecule `OC1(c2ccccc2)CCN(Cc2cccc(-c3c[nH]c4nc(NC5CCCC5)ncc34)c2)C1` (stereo not drawn) came in with an IC50 of 910 nM.

As for `NC(=O)c1ccccc1OCC(=O)Nc1ccc(-c2cccc(-c3nc4ccc(C(F)(F)F)cc4[nH]3)c2)cc1`, the half-maximal inhibitory concentration (IC50) came to 980 nM.

For `CCN(CC)CCCCCNc1c2ccc(Cl)cc2nc2ccc(OC)cc12`, the IC50 is 50 nM.

`Clc1ccccc1C=NNc1ccnc2ccccc12` displayed an IC50 of 850 nM.

`O=C(CCc1cnc[nH]1)Nc1cccc(-c2ccc(-c3nc4ccccc4[nH]3)s2)c1` yielded an IC50 of 760 nM.

`CCCCCCn1c(Sc2ccc(C#N)c([N+](=O)[O-])c2)nnc1-c1ccc(N(C)C)cc1` came in with an IC50 of 1070 nM.

For `Cc1[nH]c2cc(F)ccc2c1C1=CCN(CCCCC2(C)C(=O)Nc3ccccc32)CC1` (stereo not drawn), the IC50 is 290 nM.

`CCc1ccccc1N1CCN(CCCCNC(=O)c2ccc(NC(=O)c3ccc(Cl)cc3)cc2)CC1` returned a 50% inhibitory concentration (IC50) of 960 nM.

Consider `NC(=O)c1ccsc1NC(=O)CNC(c1ccccc1)c1ccccc1`, for which the IC50 turned out to be 940 nM.

Molecule `Clc1cccc(-c2nc(Nc3ccnc(-c4ccc(CN5CCOCC5)cc4)c3)c3ccccc3n2)c1` registered an IC50 of 710 nM.

As for `CNC(=O)C1Cc2c([nH]c3cc(Br)ccc23)C2(CCN(CCc3ccccc3)CC2)N1` (stereo not drawn), the IC50 was 720 nM.

`O=C(/C=C/c1ccc(Cl)c(Cl)c1)NCCCCCN1CCN(C(=O)Nc2ccc(OC(F)F)cc2)CC1`: the IC50 was determined as 950 nM.

Consider `O=C(Nc1nc2ccc(Cl)cc2s1)c1csnn1`, for which the IC50 stood at 790 nM.

Molecule `C=CCn1c(Cc2ccccc2)nnc1Sc1ccc(C#N)c([N+](=O)[O-])c1` yielded an IC50 of 1030 nM.

On to `CN1CCC(C(=O)Nc2cccc(-c3ccc(-c4nc5ccc(C(F)(F)F)cc5[nH]4)cc3)c2)CC1`, for which the half-inhibitory concentration (IC50) was determined as 680 nM.

In turn, `Cc1[nH]cnc1CSCCNC(=NCCCCCCCCN=C(NC#N)NCCSCc1nc[nH]c1C)NC#N` displayed an IC50 of 1270 nM.

In turn, `CON(CCCN(C)C)C(=N)N` yielded an IC50 of 1080 nM.

The molecule `C[C@@H]1CN(c2nc(NCCc3ccc(O)cc3)nc(NCc3ccccc3-c3ccc(C(F)(F)F)cc3)n2)C[C@H](C)N1` came in with an IC50 of 530 nM.

`CCCN(CCC)CCOc1ccc(C(O)(C#CC(O)(c2ccc(OCCN(CCC)CCC)cc2)c2cccc(Cl)c2)c2cccc(Cl)c2)cc1` (stereo not drawn) came in with a concentration for half-maximal inhibition (IC50) of 790 nM.

As to `CCCCCOc1ccc(C(O)C(CN2CCCCC2)c2ccccc2)cc1` (stereo not drawn), the IC50 is 880 nM.

Molecule `CC(C)(CNCc1cccc(Oc2ccccc2)c1)c1nc(-c2ccc(Cl)c(O)c2)c(-c2ccnc(N)n2)[nH]1` gave an IC50 of 760 nM.

`COc1cc(C)nc2ccc(NC(=O)Nc3ccc([N+](=O)[O-])cc3C)cc12`: the IC50 turned out to be 600 nM.

On to `O=C(Nc1ccc(OCc2ccccc2)cc1)c1nc2ccccc2nc1Cl`, for which the IC50 amounted to 250 nM.

`Cc1ccc(CNC(=O)[C@H](CCCN)Nc2nc(Nc3ccccc3)ncc2C)cc1` displayed an IC50 of 1530 nM.

With `O=C(Nc1ccc([N+](=O)[O-])cc1)Nc1cc(C(F)(F)F)ccc1F`, the IC50 stood at 1070 nM.

In turn, `FC(F)(F)c1ccc2nccc(NN=Cc3ccccc3)c2c1` registered an IC50 of 1170 nM.

Regarding `COc1ccc(C2NCCc3c2[nH]c2ccccc32)cc1CN1CCN(c2ccc(F)cc2)CC1` (stereo not drawn), the 50% inhibitory concentration (IC50) was found to be 780 nM.

Take `Cc1ccc2oc3cc(-c4nn[nH]n4)ccc3c(=O)c2c1`: the IC50 was 90 nM.

Molecule `COc1cc2ncnc(Nc3ccc4nc(Cc5ccccc5)[nH]c4c3)c2cc1OC` registered an IC50 of 1480 nM.

As to `O=C(Nc1cccc(C(F)(F)F)c1)Nc1ccc(Cl)c(Cl)c1`, the IC50 stood at 740 nM.

`CN(c1cc(NC(=O)c2cccs2)ccn1)C1CCN(Cc2cccc(C#N)c2)CC1` came in with an IC50 of 1260 nM.

Consider `O=C(Nc1ccc(OC2CCN(Cc3ccccc3)C2)c(Cl)c1)c1ccco1` (stereo not drawn), for which the IC50 is 410 nM.

The molecule `N=C(N)c1ccc(-c2cc3ccc(C(=N)N)cc3[nH]2)cc1` displayed an IC50 of 60 nM.

Molecule `CNC(=O)c1ccc2[nH]cc(C3CCN(CC4CCC(NC(=O)/C=C/c5ccccc5Cl)CC4)CC3)c2c1` (stereo not drawn) had an IC50 of 840 nM.

`COc1ccc(Nc2nccc(N3CCC(NC(=O)Nc4cccc(C(C)=O)c4)C3)n2)cc1` (stereo not drawn): the IC50 turned out to be 820 nM.

In turn, `CS(=O)(=O)c1ccc(CCNCc2ccc(-c3ccc(CN(C(=O)C4CCCC4)C4CCN(Cc5ccccc5)CC4)cc3)nc2)cc1` displayed an IC50 of 830 nM.

Molecule `CCCNC(=O)c1cncc(-c2ccc(CNCCCc3ccccc3)cc2)c1` came in with an IC50 of 690 nM.

In the case of `O=C(NCC1CCC(CNCCc2ccccc2)CC1)Nc1ccc(Cl)c(Cl)c1` (stereo not drawn), the IC50 worked out at 740 nM.

As to `Cc1cccc2[nH]c(-c3cccc(-c4cccc(NC(=O)Nc5cccc(C#N)c5)c4)c3)nc12`, the IC50 is 100 nM.

`COc1cccc(C(=O)OC2=C3CCC(=O)C3(C)CCC2=O)c1` (stereo not drawn): the IC50 was found to be 80 nM.

For `CC(c1cccc(Nc2nccc(-c3c(-c4cccc(NC(=O)c5c(F)cccc5F)c4)nn4ncccc34)n2)c1)S(C)(=O)=O` (stereo not drawn), the IC50 is 50 nM.

In the case of `CCOC(=O)CNCC(=O)c1ccc(OCc2ccccc2)cc1`, the IC50 amounted to 160 nM.

`Cc1ccc(-c2nc3ccccc3o2)cc1NCc1cc(Cc2ccccc2)ccc1O`: the IC50 was 1030 nM.

With `Cc1cc(C(=O)Nc2ccc3c(ccn3C3CCCN(Cc4ccc(C(F)(F)F)cc4F)CC3)c2)no1` (stereo not drawn), the concentration for half-maximal inhibition (IC50) was 760 nM.

For `COc1ccc(CC(=O)NC(CCCN2CCC3(CC2)OCc2ccccc23)c2ccc(Cl)c(Cl)c2)cc1` (stereo not drawn), the IC50 was found to be 1130 nM.

`COc1ccc(-c2ccc(NC(=O)c3ccc(Cl)cc3)cc2)cc1CN(C)CCO` gave an IC50 of 810 nM.

In turn, `CCCC(=O)NC(c1ccc(C(C)C)cc1)c1ccc2cccnc2c1O` (stereo not drawn) had a 50% inhibitory concentration (IC50) of 930 nM.

As for `COc1ccc(Oc2ccc(-c3c(C)[nH]c(C)cc3=O)cc2)cc1`, the IC50 was 610 nM.

As for `NC1CCN(Cc2ccc(-c3cccc(-c4nc5ccccc5[nH]4)c3)cc2)C1` (stereo not drawn), the IC50 is 850 nM.

As to `O=C(Nc1cccc(OC2CCN(Cc3ccccc3)CC2)c1)c1ccc([N+](=O)[O-])cc1`, the IC50 came out at 660 nM.

Regarding `CCOc1cc(C(=O)NC2CCN(Cc3ccccc3)CC2)ccc1-c1nc2cc(Cl)c(F)cc2[nH]1`, the IC50 was found to be 800 nM.

Turning to `COc1ccc2c(c1CCNCCCCNCCc1c(OC)ccc3c1CCCC3)CCCC2`, the half-inhibitory concentration (IC50) worked out at 380 nM.

`Clc1cccc(Nc2ccc3c(N4CCCCC4)ncnc3n2)c1` gave an IC50 of 580 nM.

With `Cc1cc2ccc(/C=C/C(=O)NC3CCC(CCN4CCc5ccc(C#N)cc5CC4)CC3)cc2[nH]1` (stereo not drawn), the IC50 worked out at 940 nM.

Consider `Cc1ccc(NC(=O)NC2CCN(CCCCCNC(=O)/C=C/c3ccc(Cl)c(Cl)c3)CC2)cc1`, for which the IC50 was found to be 690 nM.

In the case of `Cc1cc(C(=O)Nc2ccc(-c3nc4ccccc4[nH]3)cc2)ccc1[N+](=O)[O-]`, the IC50 came to 670 nM.

For `COc1c(C2CCN(CCN3CCC(CNC(=O)c4ccc(-c5ccc(C#N)cc5)cc4)CC3)CC2)ccc2c1CCCC2`, the IC50 was determined as 460 nM.

Take `Nc1ccc2[nH]cc(C3CCN(CC4CCC(NC(=O)/C=C/c5ccc(Cl)c(Cl)c5)CC4)CC3)c2n1` (stereo not drawn): the IC50 stood at 730 nM.

As to `O=C(/C=C/c1ccc(-c2nc3ccc(Cl)cc3[nH]2)cc1)NCc1cccc(F)c1`, the IC50 is 640 nM.

With `CCN(CC)CCCOC(=O)c1ccc2c(c1)-c1ccc(C(=O)OCCCN(CC)CC)c3cccc-2c13`, the half-inhibitory concentration (IC50) is 930 nM.
